Reference: ChEMBL document CHEMBL5252578, “seco-Pregnane Glycosides from Australian Caustic Vine (Cynanchum viminale subsp. australe)” (J Nat Prod, 2023)
Activity calls are given as the source filed them. The rule behind the calls is not given here.

Legend:
[1] = molecular target: Cholinesterase (Equus caballus) (UniProt P81908); test: Inhibition of equine BuChE at 100 uM using […] as substrate incubated for 29 mins by Ellman's method relative to control
Sarcoptes scabiei [2] = test: Miticidal activity against Sarcoptes scabiei Larva assessed as effect on larval mortality at 100 uM measured upto 48 hrs by microscopic analysis; type: functional, organism-based
Sarcoptes scabiei [3] = test: Miticidal activity against Sarcoptes scabiei assessed as mortality rate at 100 uM measured upto 48 hrs by microscopic analysis; type: functional
Sarcoptes scabiei [4] = test: Miticidal activity against Sarcoptes scabiei eggs assessed as effect on egg hatching at 100 uM measured upto 48 hrs by microscopic analysis; type: functional, organism-based
MCF7 = test: Cytotoxicity against human MCF7 cells assessed as cell growth inhibition measured after 6 days by SRB assay; type: functional, cell-based; settings: MCF7, 144 h
MM96L = test: Cytotoxicity against human MM96L cells assessed as cell growth inhibition measured after 6 days by SRB assay; type: functional, cell-based; settings: 144 h
HeLa = test: Cytotoxicity against human HeLa cells assessed as cell growth inhibition measured after 6 days by SRB assay; type: functional, cell-based; settings: 144 h
HT-29 = test: Cytotoxicity against human HT-29 cells assessed as cell growth inhibition measured after 6 days by SRB assay; type: functional, cell-based; settings: HT-29, 144 h
NFF = test: Cytotoxicity against human NFF cells assessed as cell growth inhibition measured after 6 days by SRB assay; type: functional, cell-based; settings: 144 h

Chain of Cholinesterase (Equus caballus) (P81908 whole entry): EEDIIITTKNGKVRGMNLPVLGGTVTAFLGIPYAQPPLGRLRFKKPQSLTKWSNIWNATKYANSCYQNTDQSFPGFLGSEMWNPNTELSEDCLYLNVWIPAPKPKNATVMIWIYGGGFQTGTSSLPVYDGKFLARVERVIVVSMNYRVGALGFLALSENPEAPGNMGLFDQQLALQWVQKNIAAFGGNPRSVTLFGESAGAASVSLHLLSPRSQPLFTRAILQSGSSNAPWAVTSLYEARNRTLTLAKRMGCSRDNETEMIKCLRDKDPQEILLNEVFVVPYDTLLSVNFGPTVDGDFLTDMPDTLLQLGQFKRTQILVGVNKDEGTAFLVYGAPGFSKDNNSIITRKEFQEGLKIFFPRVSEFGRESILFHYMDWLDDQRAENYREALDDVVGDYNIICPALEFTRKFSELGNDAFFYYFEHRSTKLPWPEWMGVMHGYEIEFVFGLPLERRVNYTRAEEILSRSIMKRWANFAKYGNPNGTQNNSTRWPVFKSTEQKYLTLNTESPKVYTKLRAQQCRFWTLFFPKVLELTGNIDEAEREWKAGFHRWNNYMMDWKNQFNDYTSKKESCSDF

Row | SMILES | inhibition [1] [%] | Activity (Sarcoptes scabiei [2]) | Activity (Sarcoptes scabiei [3]) | Activity (Sarcoptes scabiei [4]) | IC50 (MCF7) [µM] | IC50 (MM96L) [µM] | IC50 (HeLa) [µM] | IC50 (HT-29) [µM] | IC50 (NFF) [µM]
1 | CC(=O)O[C@H](C[C@H]1C(=O)CC=C2C[C@@H](O)CC[C@@]21C)[C@@]1(C)C(=O)CC[C@H]1C(C)=O | 7.72 | – | – | – | – | – | – | – | –
2 | CO[C@H]1C[C@H](O[C@H]2[C@@H](OC)C[C@H](O[C@H]3CC[C@@]4(C)C(=CCC(=O)[C@@H]4C[C@@H](OC(C)=O)[C@@]4(C)C(=O)CC[C@H]4C(C)=O)C3)O[C@@H]2C)O[C@H](C)[C@H]1O | 13.5 | inactive | 30% | inactive | – | – | – | – | –
3 | C[C@@]1([C@@H](C[C@H]2C(=O)CC=C3C[C@@H](O)CC[C@@]32C)OC(=O)c2ccccc2)C(=O)[C@@]2(C)CC[C@@H]1O2 | 14 | – | – | – | > 10 | > 10 | > 10 | > 10 | > 10
4 | CO[C@H]1C[C@H](O[C@H]2CC[C@@]3(C)C(=CCC(=O)[C@@H]3C[C@@H](OC(C)=O)[C@@]3(C)C(=O)CC[C@H]3C(C)=O)C2)O[C@H](C)[C@H]1O[C@H]1C[C@@H](OC)[C@H](O)[C@@H](C)O1 | 2.64 | inactive | inactive | inactive | – | – | – | – | –
